Our source for the IC50 and efflux ratio values is patent publication US11834453B2, “Substituted pyrimido[5,4-d]pyrimidines as HER2 inhibitors” (Array BioPharma Inc., priority 2020, dated 2023).

Molecules are shown by their SMILES. Where two headings read alike, the source gives them in different places.

The target in data set [1] is ErbB2 insYVMA (HER2-YVMA, SEQ ID NO: 2) (Homo sapiens, UniProt P04626, INS775YVMA/P1170A). The data set is described as follows: biochemical. The following applies: ErbB2 insYVMA enzyme assay.
The target of a further data set is ErbB2 WT (Homo sapiens (Human), UniProt P04626). The data set is described as follows: ErbB enzyme assay (CisBio HTRF KinEASE-TK), Assay 2. Type of data set: biochemical. The gist of the method: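 Readout is HTRF KinEASE-TK, using Sa-XL665 and cryptate antibody for 1 h at 22 °C, as percent of control between DMSO-only (100) and pre-quenched (0) reactions. The kinase reaction runs 30 min at 22 °C with 1 mM ATP and 250 nM biotinylated TK substrate, in HEPES pH 7.4 with MgCl2 and 2% DMSO.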
On the technique in general: Time-resolved FRET reads energy transfer from a long-lived donor to a nearby acceptor.

For a further data set, the target named is EGFR (Homo sapiens (Human), UniProt P00533). The data set is described as follows: ErbB enzyme assay (CisBio HTRF KinEASE-TK), Assay 3. Type of data set: biochemical. The gist of the method:
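IC50 was taken where a 4-parameter logistic fit crossed 50 percent of control (DMSO 100, pre-quenched 0), read by ratiometric HTRF. Reactions ran 30 min at 22 °C with 1 mM ATP and 250 nM TK-substrate biotin in pH 7.4 HEPES buffer with MgCl2, Triton X-100 and 2% DMSO.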

Data set [2] addresses ErbB2 with Exon 20 YVMA insertion (HER2-YVMA) (Homo sapiens (Human), UniProt P04626, INS775YVMA). The data set is described as follows: Cellular phosphorylation assay, constitutive ErbB2 phosphorylation (Y1196) in engineered NIH 3T3 cells, Assay 4. Type of data set: cell-based. The gist of the method: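 In-cell Western in NIH 3T3 cells carrying ErbB2 exon 20 YVMA insertion, with no ligand stimulation. One hour compound exposure at 37 °C before fixation and anti-pY1196 plus GAPDH staining with dual-wavelength fluorescence. IC50 derived after GAPDH normalization.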

A further data set addresses MDR1 (P-gp) (Homo sapiens (Human), UniProt P08183). The data set is described as follows: MDR1 transfected LLC-PK1 permeability/efflux, Assay 6. The following applies: pig.
The next data set deals with EGFR wild type (EGFR WT) (Homo sapiens (Human), UniProt P00533). The data set is described as follows: Cellular phosphorylation assay, EGF-stimulated EGFR phosphorylation in engineered NIH 3T3 cells, Phospho-EGFR DuoSet IC ELISA, Assay 5. Format: cell-based. Put shortly:
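Phospho-EGFR ELISA on lysates of engineered NIH 3T3 EGFR WT cells, IC50 derived from concentration curves. Cells plated at 20,000/well overnight, given compound dilutions 1 h at 37 °C, then rEGF 100 ng/ml for a further 10 min before lysis.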
(In general: An ELISA detects its analyte on a solid surface through an enzyme-linked reagent.)

The target of another data set is BCRP (Homo sapiens (Human), UniProt Q9UNQ0). The data set is described as follows: BCRP transfected MDCKII canine Mdr1 knockout permeability/efflux, Assay 9. The following applies: dog, Assay 9 Pe Ratio, efflux ratio Papp(B-A)/Papp(A-B), BCRP transfected MDCKII canine Mdr1 knockout.
Where [3] appears, read: LLC-PK1, Assay 6 Pe Ratio, efflux ratio Papp(B-A)/Papp(A-B), MDR1 transfected LLC-PK1.

Sequence of ErbB2 WT (P04626 23-1255): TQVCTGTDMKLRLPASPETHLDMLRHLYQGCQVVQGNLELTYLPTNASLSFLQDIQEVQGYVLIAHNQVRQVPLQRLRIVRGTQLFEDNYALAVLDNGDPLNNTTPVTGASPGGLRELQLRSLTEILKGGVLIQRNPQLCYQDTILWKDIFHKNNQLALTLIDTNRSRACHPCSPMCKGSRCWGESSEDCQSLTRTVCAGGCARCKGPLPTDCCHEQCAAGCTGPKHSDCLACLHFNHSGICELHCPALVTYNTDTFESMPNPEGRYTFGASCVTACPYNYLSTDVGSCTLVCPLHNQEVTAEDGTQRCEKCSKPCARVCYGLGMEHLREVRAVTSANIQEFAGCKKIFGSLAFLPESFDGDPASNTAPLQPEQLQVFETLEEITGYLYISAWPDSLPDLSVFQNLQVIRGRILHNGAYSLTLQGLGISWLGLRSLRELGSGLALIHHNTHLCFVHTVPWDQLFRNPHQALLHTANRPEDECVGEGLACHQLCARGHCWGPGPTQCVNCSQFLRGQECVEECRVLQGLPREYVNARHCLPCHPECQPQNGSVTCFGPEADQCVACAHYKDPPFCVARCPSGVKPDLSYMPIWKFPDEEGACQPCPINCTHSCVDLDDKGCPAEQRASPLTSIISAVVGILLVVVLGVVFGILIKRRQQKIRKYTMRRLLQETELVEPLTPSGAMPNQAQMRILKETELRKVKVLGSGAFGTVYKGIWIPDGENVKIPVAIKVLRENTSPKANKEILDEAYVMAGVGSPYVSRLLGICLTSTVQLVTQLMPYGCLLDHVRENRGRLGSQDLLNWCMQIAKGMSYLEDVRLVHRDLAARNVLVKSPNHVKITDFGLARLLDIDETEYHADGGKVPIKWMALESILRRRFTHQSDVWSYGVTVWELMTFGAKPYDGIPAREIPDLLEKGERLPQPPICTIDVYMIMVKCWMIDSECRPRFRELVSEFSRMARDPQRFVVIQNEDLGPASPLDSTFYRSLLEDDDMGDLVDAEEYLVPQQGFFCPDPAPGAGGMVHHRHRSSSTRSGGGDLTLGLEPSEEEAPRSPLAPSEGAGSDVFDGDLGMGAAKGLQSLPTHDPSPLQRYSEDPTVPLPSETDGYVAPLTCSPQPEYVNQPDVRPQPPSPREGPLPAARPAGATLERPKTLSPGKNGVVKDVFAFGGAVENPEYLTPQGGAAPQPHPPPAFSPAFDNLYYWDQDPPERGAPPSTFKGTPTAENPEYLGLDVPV
Sequence of MDR1 (P-gp) (P08183 whole entry): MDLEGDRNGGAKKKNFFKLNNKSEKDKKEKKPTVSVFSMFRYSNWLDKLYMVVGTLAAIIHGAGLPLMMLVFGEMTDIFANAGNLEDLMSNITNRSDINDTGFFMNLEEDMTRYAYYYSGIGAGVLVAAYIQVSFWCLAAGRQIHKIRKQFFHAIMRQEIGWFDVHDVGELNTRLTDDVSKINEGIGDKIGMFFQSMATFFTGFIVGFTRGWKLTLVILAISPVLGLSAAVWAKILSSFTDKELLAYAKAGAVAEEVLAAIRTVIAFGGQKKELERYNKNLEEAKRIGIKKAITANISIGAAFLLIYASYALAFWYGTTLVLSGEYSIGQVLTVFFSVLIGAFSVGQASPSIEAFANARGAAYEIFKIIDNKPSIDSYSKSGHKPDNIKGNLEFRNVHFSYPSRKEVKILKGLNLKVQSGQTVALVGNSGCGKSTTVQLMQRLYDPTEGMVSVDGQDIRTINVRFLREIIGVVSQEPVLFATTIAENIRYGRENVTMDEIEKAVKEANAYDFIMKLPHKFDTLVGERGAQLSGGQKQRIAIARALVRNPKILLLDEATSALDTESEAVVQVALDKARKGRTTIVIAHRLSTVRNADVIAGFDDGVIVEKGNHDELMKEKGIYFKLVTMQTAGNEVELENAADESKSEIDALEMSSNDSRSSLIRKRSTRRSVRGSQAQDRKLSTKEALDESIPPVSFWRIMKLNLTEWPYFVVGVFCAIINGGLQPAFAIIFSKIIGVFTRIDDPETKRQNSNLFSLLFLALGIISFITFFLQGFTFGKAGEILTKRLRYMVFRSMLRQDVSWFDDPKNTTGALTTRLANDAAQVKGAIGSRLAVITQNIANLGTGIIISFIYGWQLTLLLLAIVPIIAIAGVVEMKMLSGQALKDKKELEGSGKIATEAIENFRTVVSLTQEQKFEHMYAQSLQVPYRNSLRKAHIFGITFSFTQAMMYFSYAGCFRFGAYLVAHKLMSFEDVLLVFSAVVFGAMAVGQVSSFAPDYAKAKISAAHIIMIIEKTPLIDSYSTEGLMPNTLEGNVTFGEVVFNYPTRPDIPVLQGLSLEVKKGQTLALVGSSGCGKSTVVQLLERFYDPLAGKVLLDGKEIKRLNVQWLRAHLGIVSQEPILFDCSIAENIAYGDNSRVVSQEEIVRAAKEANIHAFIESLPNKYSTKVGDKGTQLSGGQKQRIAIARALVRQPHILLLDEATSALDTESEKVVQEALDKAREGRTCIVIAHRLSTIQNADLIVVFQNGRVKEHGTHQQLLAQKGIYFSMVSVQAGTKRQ
Sequence of BCRP (Q9UNQ0 whole entry): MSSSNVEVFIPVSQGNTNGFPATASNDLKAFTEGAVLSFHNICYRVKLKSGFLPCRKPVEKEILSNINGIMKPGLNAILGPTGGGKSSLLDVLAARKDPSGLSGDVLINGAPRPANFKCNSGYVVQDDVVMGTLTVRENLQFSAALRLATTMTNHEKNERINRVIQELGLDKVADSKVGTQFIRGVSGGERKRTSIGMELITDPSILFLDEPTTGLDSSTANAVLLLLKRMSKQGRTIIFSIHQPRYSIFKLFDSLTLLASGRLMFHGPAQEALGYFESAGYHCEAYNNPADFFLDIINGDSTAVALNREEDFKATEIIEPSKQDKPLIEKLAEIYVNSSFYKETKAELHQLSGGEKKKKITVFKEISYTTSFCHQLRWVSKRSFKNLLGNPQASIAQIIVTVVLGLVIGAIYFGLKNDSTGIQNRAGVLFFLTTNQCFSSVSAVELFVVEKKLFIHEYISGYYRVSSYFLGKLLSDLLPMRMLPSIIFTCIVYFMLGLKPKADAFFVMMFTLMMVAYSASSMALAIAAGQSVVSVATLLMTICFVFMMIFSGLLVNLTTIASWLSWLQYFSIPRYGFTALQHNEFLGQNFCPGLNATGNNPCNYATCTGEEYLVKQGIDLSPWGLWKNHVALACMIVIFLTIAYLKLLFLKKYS
Sequence of ErbB2 insYVMA (HER2-YVMA, SEQ ID NO: 2) (P04626 with tags, fused parts or gaps INS775YVMA/P1170A limits assumed): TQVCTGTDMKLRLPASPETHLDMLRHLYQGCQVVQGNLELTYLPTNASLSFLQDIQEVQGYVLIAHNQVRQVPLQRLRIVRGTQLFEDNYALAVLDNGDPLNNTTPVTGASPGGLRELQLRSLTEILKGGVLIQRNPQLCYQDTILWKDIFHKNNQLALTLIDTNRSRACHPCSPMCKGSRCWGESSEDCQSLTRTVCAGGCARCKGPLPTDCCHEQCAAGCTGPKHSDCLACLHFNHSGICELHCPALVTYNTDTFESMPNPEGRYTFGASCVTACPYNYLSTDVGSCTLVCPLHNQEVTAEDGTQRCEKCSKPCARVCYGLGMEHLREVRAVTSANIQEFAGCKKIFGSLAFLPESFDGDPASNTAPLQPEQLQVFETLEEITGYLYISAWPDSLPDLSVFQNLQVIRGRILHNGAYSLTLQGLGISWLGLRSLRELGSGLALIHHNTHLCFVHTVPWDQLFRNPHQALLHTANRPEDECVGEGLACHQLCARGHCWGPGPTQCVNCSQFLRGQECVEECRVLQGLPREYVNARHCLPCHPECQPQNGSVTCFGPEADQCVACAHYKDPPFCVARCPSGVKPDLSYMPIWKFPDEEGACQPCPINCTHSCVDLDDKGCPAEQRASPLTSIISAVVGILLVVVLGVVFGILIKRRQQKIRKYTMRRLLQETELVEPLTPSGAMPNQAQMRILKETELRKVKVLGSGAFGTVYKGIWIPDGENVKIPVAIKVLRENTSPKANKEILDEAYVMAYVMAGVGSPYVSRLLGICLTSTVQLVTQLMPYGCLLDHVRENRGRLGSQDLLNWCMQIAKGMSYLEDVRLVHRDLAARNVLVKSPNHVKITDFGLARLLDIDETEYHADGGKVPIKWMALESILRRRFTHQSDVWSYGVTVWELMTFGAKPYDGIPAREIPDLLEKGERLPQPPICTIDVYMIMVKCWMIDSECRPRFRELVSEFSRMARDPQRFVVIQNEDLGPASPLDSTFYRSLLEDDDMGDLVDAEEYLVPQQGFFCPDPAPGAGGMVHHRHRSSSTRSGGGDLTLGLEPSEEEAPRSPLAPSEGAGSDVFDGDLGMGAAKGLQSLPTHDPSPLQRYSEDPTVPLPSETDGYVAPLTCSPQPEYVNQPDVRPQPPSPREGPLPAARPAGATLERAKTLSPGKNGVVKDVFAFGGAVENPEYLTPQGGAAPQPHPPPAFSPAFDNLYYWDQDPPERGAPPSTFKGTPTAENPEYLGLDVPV
Protocol for MDR1 (P-gp): Both MDR1 transfected LLC-PK1 (Assay 6) and MDR1 transfected MDCKII canine Mdr1 knockout cells (Assay 7) were cultured and plated according to manufacturer's recommendations with the exception that the passage media for the MDR1 transfected LLC-PK1 cell line contained only 2% fetal bovine serum so as to extend passage time out to seven days.
Both positive and negative controls were used to assess functionality of P-gp or BCRP efflux in the assays. Stock solutions for assay controls and the test article were prepared in DMSO for final test concentration of 1 μM. Final organic concentration in the assay was 1%. All dosing solutions contained 10 μM lucifer yellow to monitor MDCKII cell monolayer integrity.
For the apical to basolateral determination (A to B), 75 μL of the test article in transport buffer were added to the apical side of the individual transwells and 250 μL of basolateral media, without compound or lucifer yellow, were added to each well. For the basolateral to apical determination (B to A), 250 μL of test article in transport buffer were added to each well and 75 μL transport buffer, without compound or lucifer yellow, were added to each transwell. All tests were performed in triplicate, and each compound was tested for both apical to basolateral and basolateral to apical transport. The plates were incubated for 2 hours on a Lab-Line Instruments Titer Orbital Shaker (VWR, West Chester, PA) at 50 rpm and 37° C. with 5% CO2. All culture plates were removed from the incubator, 50 μL of media were removed from the apical and basolateral portion of each well, and added to 150 μL of 1 μM labetalol in 2:1 acetonitrile (ACN): H2O, v/v.
The plates were read using a Molecular Devices (Sunnyvale, CA) Gemini Fluorometer to evaluate the lucifer yellow concentrations at excitation/emission wavelengths of 425/535 nm. These values were accepted when found to be below 2% for apical to basolateral and 5% basolateral to apical flux across the MDR1-transfected LLC-PK1 or BCRP-transfected MDCKII cell monolayers. The plates were sealed, and the contents of each well analyzed by LC MS/MS. The compound concentrations were determined from the ratio of the peak areas of the compound to the internal standard (labetalol) in comparison to the dosing solution.
A MDS Sciex API 4000 (Applied Biosystems, Foster City, CA) mass spectrometer was used for detection of the analytes in the ion spray positive mode. Analyte responses were measured by multiple reaction monitoring (“MRM”) of transitions unique to each compound (the protonated precursor ion and selected product ions for each test article and m/z 329 to m/z 162 for labetalol, the internal standard.
The total run time, including re-equilibration, for a single injection was 1.2 minutes. […] The total run time, including re-equilibration, for a single injection was 0.61 minutes.
An efflux ratio is calculated from the mean apical to basolateral (A-B) Papp data and basolateral to apical (B-A) Papp data: Efflux ratio=Papp(B−A)/Papp(A−B)

In the case of `Cc1cc(Nc2ncnc3cnc(N4CCCC5(COC5)C4)nc23)ccc1Oc1ccc2c(c1)ncn2C` [Example 45, N-(3-methyl-4-((1-methyl-1H-benzo[d]imidazol-5-yl)oxy)phenyl)-6-(2-oxa-6-azaspiro[3.5]nonan-6-yl)pyrimido[5,4-d]pyrimidin-4-amine], the IC50 (as a rule, the concentration that gives 50% inhibition) in data set [1] (read-out: Assay 1 IC50) worked out at 31 nM; on ErbB2 WT, 25 nM; against EGFR it was 4740 nM; in data set [2], 56.2 nM. Moreover, at MDR1 (P-gp) (LLC-PK1), the efflux ratio (usually a quotient of directional permeabilities that is used to spot active efflux) at 2 h, 1 μM is 2.2.
As for `Cc1cc(Nc2ncnc3cnc(N4CC[C@@H](C)C4=O)nc23)ccc1Oc1ccc2c(c1)ncn2C` [Example 51, (R)-3-methyl-1-(8-((3-methyl-4-((1-methyl-1H-benzo[d]imidazol-5-yl)oxy)phenyl)amino)pyrimido[5,4-d]pyrimidin-2-yl)pyrrolidin-2-one], the IC50 in data set [1] (read-out: Assay 1 IC50) was 41.1 nM; at ErbB2 WT, 79.3 nM; against EGFR, not below 10000 nM; in data set [2], 52.1 nM. In addition, the efflux ratio at 2 h, 1 μM at MDR1 (P-gp) (setting [3]) was found to be 4.4.
The matching figures for `Cc1cc(Nc2ncnc3cnc(N4CC5COC(C5)C4)nc23)ccc1Oc1ccc2c(c1)ncn2C` (stereo not drawn) [Example 67, 6-(6-oxa-3-azabicyclo[3.2.1]octan-3-yl)-N-(3-methyl-4-((1-methyl-1H-benzo[d]imidazol-5-yl)oxy)phenyl)pyrimido[5,4-d]pyrimidin-4-amine]: 15.1 nM, 34.3 nM, not below 10000 nM, 86.7 nM and 2.1.
On to `Cc1cc(Nc2ncnc3cnc(N4CC5CC(C4)O5)nc23)ccc1Oc1ccc2c(c1)ncn2C.O=C(O)C(F)(F)F` [Example 69, 6-(6-oxa-3-azabicyclo[3.1.1]heptan-3-yl)-N-(3-methyl-4-((1-methyl-1H-benzo[d]imidazol-5-yl)oxy)phenyl)pyrimido[5,4-d]pyrimidin-4-amine 2,2,2-trifluoroacetate], for which the IC50 in data set [1] (Assay 1 IC50 (nM)) is 27.6 nM; on ErbB2 WT it was 161 nM; on EGFR, not below 10000 nM; in data set [2] it was 35.8 nM. Further, the efflux ratio at 2 h, 1 μM on MDR1 (P-gp) (LLC-PK1) came to 2.6.
With `CON1CCN(c2ncc3ncnc(Nc4ccc(Oc5ccc6c(c5)ncn6C)c(Cl)c4)c3n2)CC1.O=C(O)C(F)(F)F` [Example 141, N-(3-chloro-4-((1-methyl-1H-benzo[d]imidazol-5-yl)oxy)phenyl)-6-(4-methoxypiperazin-1-yl)pyrimido[5,4-d]pyrimidin-4-amine 2,2,2-trifluoroacetate], the IC50 is 23.2 nM in data set [1] (Assay 1 IC50 (nM)); 25.9 nM against ErbB2 WT; 4440 nM at EGFR; 17.1 nM in data set [2]; not below 5000 nM against EGFR wild type (EGFR WT). For the same compound, at BCRP, the efflux ratio at 2 h, 1 μM came to 1.4.
`Cc1cc(Nc2ncnc3cnc(N(C)CC4(O)CCC4)nc23)ccc1Oc1ccc2c(c1)ncn2C` [Example 164, 1-((methyl(8-((3-methyl-4-((1-methyl-1H-benzo[d]imidazol-5-yl)oxy)phenyl)amino)pyrimido[5,4-d]pyrimidin-2-yl)amino)methyl)cyclobutan-1-ol]: the IC50 was 28 nM in data set [1] (read-out: Assay 1 IC50); 52.3 nM at ErbB2 WT; not below 10000 nM against EGFR; 9 nM in data set [2]; not below 5000 nM against EGFR wild type (EGFR WT). Also, the efflux ratio at 2 h, 1 μM on BCRP worked out at 2.2.
For `Cc1cc(Nc2ncnc3cnc(N4CCCO4)nc23)ccc1Oc1ccc2c(c1)ncn2C` [Example 178, 6-(isoxazolidin-2-yl)-N-(3-methyl-4-((1-methyl-1H-benzo[d]imidazol-5-yl)oxy)phenyl)pyrimido[5,4-d]pyrimidin-4-amine], the IC50 in data set [1] (read-out: Assay 1 IC50) was 20.9 nM; against EGFR, not below 10000 nM; in data set [2], 9.9 nM; at EGFR wild type (EGFR WT), not below 5000 nM. Besides, at MDR1 (P-gp) (setting [3]), the efflux ratio at 2 h, 1 μM amounted to 3.7.
The like results for `Cc1cc(Nc2ncnc3cnc(N(C)C[C@@H](C)O)nc23)ccc1Oc1ccc2c(c1)ncn2C` [Example 189, (R)-1-(methyl(8-((3-methyl-4-((1-methyl-1H-benzo[d]imidazol-5-yl)oxy)phenyl)amino)pyrimido[5,4-d]pyrimidin-2-yl)amino)propan-2-ol] were, in that order, 12.7 nM, 6460 nM, 13.9 nM, not below 5000 nM and 4.2.
On to `Cc1cc(Nc2ncnc3cnc(N4CC(C)(O)CO4)nc23)ccc1Oc1ccc2c(c1)ncn2C` (stereo not drawn) [Example 191, 4-methyl-2-(8-((3-methyl-4-((1-methyl-1H-benzo[d]imidazol-5-yl)oxy)phenyl)amino)pyrimido[5,4-d]pyrimidin-2-yl)isoxazolidin-4-ol], for which the IC50 in data set [1] (read-out: Assay 1 IC50) is 33 nM; at EGFR, not below 10000 nM; in data set [2], 36.4 nM; at EGFR wild type (EGFR WT) it was not below 5000 nM. Also, on MDR1 (P-gp) (setting [3]), the efflux ratio at 2 h, 1 μM was 36.5.
For the compound `Cc1cc(Nc2ncnc3cnc(N(C)CC(C)(C)O)nc23)ccc1Oc1cc(F)c2c(c1)ncn2C` [Example 203, 1-((8-((4-((7-fluoro-1-methyl-1H-benzo[d]imidazol-5-yl)oxy)-3-methylphenyl)amino)pyrimido[5,4-d]pyrimidin-2-yl)(methyl)amino)-2-methylpropan-2-ol], the IC50 was 20.3 nM in data set [1] (read-out: Assay 1 IC50); 65.4 nM against ErbB2 WT; 4580 nM at EGFR; 8.3 nM in data set [2]; not below 5000 nM against EGFR wild type (EGFR WT). At BCRP, the efflux ratio at 2 h, 1 μM turned out to be 1.9.
`Cc1cc(Nc2ncnc3cnc(N(C)CCO)nc23)ccc1Oc1ccc2c(c1)ncn2C` [Example 208, 2-(methyl(8-((3-methyl-4-((1-methyl-1H-benzo[d]imidazol-5-yl)oxy)phenyl)amino)pyrimido[5,4-d]pyrimidin-2-yl)amino)ethan-1-ol]: the IC50 in data set [1] (read-out: Assay 1 IC50) is 17.3 nM; at EGFR, 3550 nM; in data set [2], 6 nM; on EGFR wild type (EGFR WT), not below 5000 nM. In addition, the efflux ratio at 2 h, 1 μM at MDR1 (P-gp) (setting [3]) was 11.2.
For `COCCOC1CN(c2ncc3ncnc(Nc4ccc(Oc5ccc6c(c5)ncn6C)c(C)c4)c3n2)C1` [Example 240], the IC50 was 41.3 nM in data set [1] (read-out: Assay 1 IC50), 77.7 nM at ErbB2 WT, not below 10000 nM against EGFR and 66.5 nM in data set [2]. Further, the efflux ratio at 2 h, 1 μM on MDR1 (P-gp) (setting [3]) stood at 2.9.
As for `CON1CCN(c2ncc3ncnc(Nc4cc(C)c(Oc5ccc6c(c5)ncn6C)cc4F)c3n2)CC1` [Example 486], the IC50 in data set [1] (read-out: Assay 1 IC50) was 29.6 nM; against ErbB2 WT, 138 nM; at EGFR it was not below 10000 nM; in data set [2], 133 nM; against EGFR wild type (EGFR WT), not below 5000 nM.
The matching figures for `Cc1cc(Nc2ncnc3cnc(N4CC5(C4)CC(O)(C(F)(F)F)C5)nc23)ccc1Oc1ccc2c(c1)ncn2C` [Example 487]: 62.1 nM, 45.7 nM, not below 10000 nM, 49.1 nM and not below 5000 nM.
The like results for `Cc1cc(Nc2ncnc3cnc(N4C[C@@H](O)C5(CC5)C4)nc23)c(Cl)cc1Oc1ccc2c(c1)ncn2C` [Example 488] were, in that order, 73.8 nM, 174 nM, not below 10000 nM, 118 nM and not below 5000 nM.
The matching figures for `Cn1cnc2cc(Oc3ccc(Nc4ncnc5cnc(N6CC[C@@H]7COC[C@H]76)nc45)cc3Cl)ccc21` [Example 489]: 17.7 nM, 9.7 nM, 3370 nM, 16.4 nM and not below 5000 nM.
Take `Cc1cc(Nc2ncnc3cnc(N(C)CC(C)(C)O)nc23)c(F)cc1Oc1ccc2c(c1)ncn2C` [Example 491]: the IC50 was 27.8 nM in data set [1] (read-out: Assay 1 IC50); 36.9 nM against ErbB2 WT; not below 10000 nM at EGFR; 78.6 nM in data set [2]; not below 5000 nM against EGFR wild type (EGFR WT).
With `Cn1cnc2cc(Oc3ccc(Nc4ncnc5cnc(N6C[C@@H]7C[C@H]6C[C@H]7O)nc45)cc3Cl)ccc21` [Example 492], the IC50 in data set [1] (read-out: Assay 1 IC50) is 24.7 nM; against ErbB2 WT, 37.8 nM; at EGFR, 4730 nM; in data set [2] it was 37.2 nM; against EGFR wild type (EGFR WT), not below 5000 nM.
